# Data: patent publication US20060084697A1, “Pi3k antagonists as radiosensitizers” (priority 2002, published 2006)
# Test system: Akt
# Assay: Western blot of radiation-induced Akt phosphorylation in HUVEC
# Type: cell-based, human
# Settings: HUVEC
# Text: HUVEC cells were obtained from Clonetics and were maintained in EBM-2 medium supplemented with EGM™-2MV SINGLEQUOTS® (Bio-Whittaker, Inc., Walkersville, Md., United States of America). An Eldorado-8 Cobalt-60 teletherapy unit (Atomic Energy of Canada Limited, Mississauga, Ontario, Canada) was used to irradiate endothelial cell cultures at a dose rate of 0.84 Gy per minute. Delivered doses ranging from 0 to 12 Gy were verified by use of thermoluminescence detectors.
# In order to determine if Akt is phosphorylated in response to irradiation, cultured HUVEC cells were serum starved for 4 hours, exposed to irradiation, and the phosphorylation of Akt was examined in cell extracts by Western blotting. Total cellular protein was extracted after radiation treatment as follows. Cells were counted and then washed with iced-cold PBS twice before the addition of lysis buffer (M-PER™ mammalian protein extraction reagent; Pierce Chemical Company, Rockford, Ill., United States of America; or 20 mM Tris, 150 mM NaCl, 1 mM EDTA, 1% Triton X-100, 2.5 mM sodium pyrophosphate, 1 mM phenylmethylsulphonyl fluoride (PMSF), and […] Leupeptin (Roche Molecular Biochemicals, Indianapolis, Ind., United States of America)). Protein concentrations were quantified using the Biorad method (Bradford, 1976). 50 μg protein was loaded into each well of an 8% sodium dodecyl […]-polyacrylamide gel electrophoresis (SDS-PAGE) gel and separated by electrophoresis. The proteins were subsequently transferred onto 0.45 μm nitrocellulose membranes. Membranes were blocked by incubation for 2 hours at room temperature in phosphate buffered saline-Triton (PBST: 0.9% NaCl, 0.3% Triton X-100, pH 7.4) containing 10% nonfat dry milk.
# The presence of Akt protein on the membrane was determined as follows. The membranes were incubated with a 1:1000 dilution of rabbit antibody directed against either phosphorylated (Ser473) or non-phosphorylated human Akt overnight at 4° C. Rabbit antibodies were obtained from Cell Signaling Technology, Beverly, Mass., United States of America. The blots were then washed with PBST to remove unbound rabbit antibodies. The washed blots were then incubated for 1 hour at room temperature with a donkey anti-rabbit IgG secondary antibody (Amersham Biosciences, Piscataway, N.J., United States of America) diluted 1:1000 in PBST. The blots were again washed with PBST to remove unbound donkey antibodies. The presences of both phosphorylated and non-phosphorylated human Akt were determined by chemiluminescent detection of donkey anti-rabbit/rabbit anti-human Akt complexes using the ECL™ detection system (Amersham Biosciences) according to the manufacturer's protocol, followed by autoradiography. […]
compound,measurement,setting,value
"O=c1cc(N2CCOCC2)oc2c(-c3ccccc3)cccc12 [LY294002, 2-(4-Morpholinyl)-8-phenyl-4H-1-benzopyran-4-one]",total Akt levels,wortmannin 4 nM or LY294002 2 μM,no effect
same,Akt phosphorylation following irradiation,"wortmannin 4 nM or LY294002 2 μM added 30 minutes prior to irradiation, 3 Gy",strong inhibition
